Assay results taken from patent US7312237B2, “Combination of epothilone analogs and chemotherapeutic agents for the treatment of prolilferative diseases” (Bristol-Myers Squibb Co., priority 2001, dated 2007).

Key:
[1] = tested on: tubulin isolated from calf brain; experiment: Tubulin polymerization assay; format: biochemical
[2] = tested on: Pat-7 human ovarian carcinoma; experiment: In vivo antitumor testing, Pat-7 in nude rats; settings: Expt. 15, nude rats, paclitaxel at optimal dose
Procedure: (§1) The MTD was frequently equivalent to OD. When death occurs, the day of death was recorded.
(§2) And, Log cell kill=T−C÷(3.32×TVDT)

[3] = tested on: HCT116/VM46 human colon carcinoma; experiment: in vivo
Description: (§3) The following human tumors were used: A2780 ovarian, A2780Tax ovarian (established from cells obtained from Dr. Antonio Fojo, Medicine Branch, NCI, Bethesda, Md.), HCT116/VM46 colon, Pat-7 ovarian (established from a tumor biopsy provided by Dr. Thomas Hamilton, Fox Chase Cancer Center, Philadelphia, Pa.) from a patient who had developed resistance to TAXOL®). The murine fibrosarcoma M5076 was also employed.
(§4) The following tumors were passaged in the indicated host strain of mouse: murine M5076 fibrosarcoma (M5076) in C57Bl/6 mice; human A2780 and Pat-7 ovarian carcinomas, HCT116, HCT116/VM46 and LS174T colon carcinoma, Pat-21 breast carcinoma in nude mice. Tumor passage occurred biweekly for murine tumors and approximately every two to eight weeks for the various human tumor lines. With regard to efficacy testing, M5076 tumors were implanted in (C57Bl/6×DBA/2)F1 hybrid mice, and human tumors were implanted in nude mice. All tumor implants for efficacy testing were subcutaneous (sc).
(§5) The required number of animals needed to detect a meaningful response were pooled at the start of the experiment and each was given a subcutaneous implant of a tumor fragment (·50 mg) with a 13-gauge trocar. For treatment of early-stage tumors, the animals were again pooled before distribution to the various treatment and control groups. For treatment of animals with advanced-stage disease, tumors were allowed to grow to the predetermined size window (tumors outside the range were excluded) and animals were evenly distributed to various treatment and control groups. Treatment of each animal was based on individual body weight. Treated animals were checked daily for treatment related toxicity/mortality. Each group of animals was weighed before the initiation of treatment (Wt1) and then again following the last treatment dose (Wt2). The difference in body weight (Wt2−Wt1) provides a measure of treatment-related toxicity.
(§6) Tumor weights (mg) were estimated from the formula: Tumor weight=(length×width^2)÷2
Antitumor activity was evaluated at the maximum tolerated dose (MTD) which is defined as the dose level immediately […] which excessive toxicity (i.e. more than one death) occurred. […] When death occurs, the day of death was recorded.
Tumor response end-point was expressed in terms of tumor growth delay (T-C value), defined as the difference in time (days) required for the treated tumors (T) to reach a predetermined target size compared to those of the control group (C).
To estimate tumor cell kill, the tumor volume doubling time was first calculated with the formula:
TVDT=Median time (days) for control tumors to reach target size−Median time (days) for control tumors to reach half the target size
HCT116/VM46 is an MDR-resistant colon carcinoma developed from the sensitive HCT116 parent line.

Pat-21 breast carcinoma = tested on: Pat-21 breast carcinoma
Description: as §4, §5, §6
(§7) Antitumor activity was evaluated at the maximum tolerated dose (MTD) which is defined as the dose level immediately […] which excessive toxicity (i.e. more than one death) occurred. […] When death occurs, the day of death was recorded. […]
(§8) To estimate tumor cell kill, the tumor volume doubling time was first calculated with the formula: […]

[4] = tested on: A2780Tax human ovarian carcinoma; settings: Expt. 12, IV paclitaxel at its MTD
Description: as §3
The following tumors were passaged in the indicated host strain of mouse: murine M5076 fibrosarcoma (M5076) in C57Bl/6 mice; human A2780 and Pat-7 ovarian carcinomas, HCT116, HCT116/VM46 and LS174T colon carcinoma, Pat-21 breast carcinoma in nude mice. Tumor passage occurred biweekly for murine tumors and approximately every two to eight weeks for the various human tumor lines. With regard to efficacy testing, M5076 tumors were implanted in (C57Bl/6×DBA/2)F1 hybrid mice, and human tumors were implanted in nude mice. All tumor implants for efficacy testing were subcutaneous (sc). […]
as §7, §8

[5] = tested on: A2780 human ovarian carcinoma; experiment: In vivo antitumor testing, A2780 in nude mice
Procedure: (§9) All tumor implants for efficacy testing were subcutaneous (sc).
as §1, §2

[6] = tested on: Pat-7 human ovarian carcinoma; experiment: In vivo antitumor testing, Pat-7 in nude mice
Procedure: as §9, §1, §2
This tumor model was established from a tumor biopsy of an ovarian cancer patient (Pat-7), who was initially responsive to TAXOL® treatment but ultimately developed resistance to it following nine courses of monotherapy with TAXOL®. Prior to treatment with TAXOL®, Pat-7 also received numerous other chemotherapeutic agents including carboplatin, cytoxan, VP-16, ifosfamide and altretamine. Tumor biopsy was taken following development of TAXOL® resistance.

HCT-116 = experiment: In vitro cytotoxicity (MTS assay), HCT-116; format: cell-based; settings: Homo sapiens; HCT-116, 72 hour incubation
Procedure: HCT116 human carcinoma cell lines and HCT116/VM46 cells, a MDR variant, were maintained in McCoy's 5A medium (GIBCO) and 10% heat inactivated fetal bovine serum (GIBCO). A2780 human ovarian carcinoma cells and A2780Tax cells obtained from Dr. Antonio Fojo (NCI, Bethesda, Md.) were maintained in IMEM (GIBCO) and 10% fetal bovine serum (GIBCO).
(§10) The in vitro cytotoxicity was assessed in tumor cells by a tetrazolium-based colorimetric assay which takes advantage of the metabolic conversion of MTS (3-(4,5-dimethylthiazol-2-yl)-5-(3-carboxymethoxyphenyl)-2-(4-sulphenyl)-2H-tetrazolium, inner salt) to a reduced form that absorbs light at 492 nm. Cells were seeded 24 hr prior to drug addition. Following a 72 hour incubation at 37° C. with serially diluted compound, MTS, in combination with the electron coupling agent phenazine methosulfate, was added to the cells. The incubation was continued for 3 hours, then the absorbancy of the medium at 492 nm was measured with a spectrophotometer to obtain the number of surviving cells relative to control populations. The results are expressed as median cytotoxic concentrations (IC50 values).

[7] = tested on: LS174T human colon carcinoma; experiment: In vivo antitumor testing, LS174T xenograft; parameters: species or system nude mice; settings: Expt. R578, iv paclitaxel 36 mg/kg/inj every 2 days for 5 doses
Procedure: as §9, §1, §2

MIP = experiment: In vitro cytotoxicity (MTS assay), MIP; format: cell-based; settings: MIP (MDR colon tumor line), 72 hour incubation; read-out: IC50
Procedure: as §10

[8] = tested on: M5076 murine fibrosarcoma; experiment: In vivo antitumor testing, M5076 murine sarcoma; parameters: species or system mice; settings: optimal schedule
Procedure: The murine fibrosarcoma M5076 was also employed.
The human tumors were maintained in Balb/c nu/nu nude mice. M5076 was maintained in C57BL/6 mice. Tumors were propagated as subcutaneous transplants in the appropriate mouse strain using tumor fragments obtained from donor mice.
as §9, §1, §2

[9] = tested on: A2780 human ovarian carcinoma; experiment: In vivo antitumor testing, A2780 in nude rats; settings: nude rats, IV paclitaxel
Procedure: as §1, §2
A2780 grown in nude rats was also utilized.

C/C(=C\c1csc(C)n1)[C@@H]1C[C@@H]2O[C@]2(C)CCC[C@H](C)[C@H](O)[C@@H](C)C(=O)C(C)(C)[C@@H](O)CC(=O)O1 [Epothilone B]
Ratio of Polymerization Potency of Analog/Paclitaxel [1]: 0.3

C/C(=C\c1csc(C)n1)[C@@H]1C[C@@H]2O[C@@H]2CCC[C@H](C)[C@H](O)[C@@H](C)C(=O)C(C)(C)[C@@H](O)CC(=O)O1 [Epothilone A]
Ratio of Polymerization Potency of Analog/Paclitaxel [1]: 0.4

CC(=O)O[C@H]1C(=O)[C@@]2(C)[C@H]([C@H](OC(=O)c3ccccc3)[C@]3(O)C[C@H](OC(=O)[C@H](O)[C@@H](NC(=O)c4ccccc4)c4ccccc4)C(C)=C1C3(C)C)[C@]1(OC(C)=O)CO[C@@H]1C[C@@H]2O [Paclitaxel, reference compound]
Paclitaxel LCK [2]: 2.2
Paclitaxel cures/total ([2]; listed as PACLITAXEL): (0/6)
Paclitaxel cures/total ([2]; listed as paclitaxel): no cures
Paclitaxel LCK ([3]; Expt. 32, IV paclitaxel at its MTD): 0.4
Paclitaxel LCK ([3]; Expt. 33, IV paclitaxel at its MTD): 0.7
median LCK of 12 consecutive studies ([3]; paclitaxel at its MTD): 0.35 LCK
Paclitaxel LCK (Pat-21 breast carcinoma; Expt. R667, paclitaxel at MTD of 36 mg/kg/inj): 0.3
MTD (Pat-21 breast carcinoma; paclitaxel, two courses of 3 doses every 4 days): 36 mg/kg/inj
Paclitaxel LCK [4]: 0.8
Paclitaxel LCK ([5]; Expt. 89, IV paclitaxel at optimal dose): 2
Paclitaxel LCK ([5]; Expt. 92, IV paclitaxel at optimal dose): 3.5
Paclitaxel LCK ([6]; Expt. 8, IV paclitaxel at optimal dose (24-36 mg/kg/inj) and schedule): 1.3
Paclitaxel (IV) LCK ([6]; Expt. 9, IV paclitaxel at optimal dose (24-36 mg/kg) and schedule): 1.2
Paclitaxel LCK ([6]; Expt. R403, IV paclitaxel at optimal dose (24-36 mg/kg/inj) and schedule): 0.6
IC50 (HCT-116): 2.1 nM
Paclitaxel LCK [7]: 2.0
IC50 (MIP): > 112 nM
Paclitaxel LCK ([8]; Expt. 159, IV paclitaxel): 0.1
Paclitaxel LCK ([8]; Expt. 162, IV paclitaxel): 0.5
cures [9]: 5 of 7
